According to PubChem BioAssay AID328 (DTP/NCI, 2004):
Where “and” joins values, the source holds several entries; their conditions need not be identical. Equal values may be shown once. Inconclusive results and toxic doses are left out. How the source made its calls: active means survival T/C of 150% or more; inactive means T/C below 125% in these data.

Test system: BDF1 mice, P388 leukemia ip, median survival T/C
Experiment: NCI In Vivo Anticancer Drug Screen. Data for tumor model P388 Leukemia (intraperitoneal) in B6D2F1 (BDF1) mice
Settings: endpoint: median survival time, higher = longer survival
How it was run: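 Reported as T/C, where T is the survival measurement in dosed animals and C the same measurement in vehicle controls.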

Measured: T/C

Cc1c(N)nc([C@H](CC(N)=O)NC[C@H](N)C(N)=O)nc1C(=O)N[C@H](C(=O)N[C@H](C)[C@@H](O)[C@H](C)C(=O)N[C@H](C(=O)NCCc1nc(-c2nc(C(=O)NCCC[S+](C)C)cs2)cs1)[C@@H](C)O)C(OC1OC(CO)C(O)C(O)C1OC1OC(CO)C(O)C(OC(N)=O)C1O)c1cnc[nH]1 (stereo partly drawn)
inactive: dose: 0.12 mg/kg/injection, schedule: Q03HX040 (ip), vehicle: saline 101 % of control | dose: 0.5 mg/kg/injection, schedule: Q03HX040 (ip), vehicle: saline 93 % of control | dose: 1.0 mg/kg/injection, schedule: Q01DX005 (ip), vehicle: water 105 % of control | dose: 1.0 mg/kg/injection, schedule: Q01DX009 (ip), vehicle: water 109 % of control | dose: 2.0 mg/kg/injection, schedule: Q01DX009 (ip), vehicle: saline 112 % of control and 115 % of control | dose: 2.0 mg/kg/injection, schedule: Q01DX009 (ip), vehicle: water 109 % of control | dose: 2.0 mg/kg/injection, schedule: Q03HX008 (ip), vehicle: saline 113 % of control | dose: 2.0 mg/kg/injection, schedule: Q03HX016 (ip), vehicle: saline 109 % of control | dose: 2.88 mg/kg/injection, schedule: Q01DX009 (ip), vehicle: saline 103 % of control | dose: 4.0 mg/kg/injection, schedule: Q01DX005 (ip), vehicle: water 107 % of control | dose: 4.0 mg/kg/injection, schedule: Q01DX009 (ip), vehicle: saline 109 % of control and 110 % of control | dose: 4.0 mg/kg/injection, schedule: Q01DX009 (ip), vehicle: water 98 % of control | dose: 4.0 mg/kg/injection, schedule: Q03HX008 (ip), vehicle: saline 109 % of control and 118 % of control | dose: 4.0 mg/kg/injection, schedule: Q03HX024 (ip), vehicle: saline 118 % of control | dose: 4.0 mg/kg/injection, schedule: Q04DX003 (ip), vehicle: other 124 % of control | dose: 4.8 mg/kg/injection, schedule: Q01DX009 (ip), vehicle: saline 115 % of control | dose: 8.0 mg/kg/injection, schedule: Q01DX005 (ip), vehicle: water 107 % of control | dose: 8.0 mg/kg/injection, schedule: Q01DX009 (ip), vehicle: water 100 % of control | dose: 8.0 mg/kg/injection, schedule: Q03HX008 (ip), vehicle: saline 118 % of control | dose: 8.0 mg/kg/injection, schedule: Q03HX016 (ip), vehicle: saline 122 % of control | dose: 8.0 mg/kg/injection, schedule: Q03HX024 (ip), vehicle: saline 104 % of control and 109 % of control | dose: 8.0 mg/kg/injection, schedule: Q04DX003 (ip), vehicle: other 108 % of control | dose: 10.8 mg/kg/injection, schedule: Q01DX009 (ip), vehicle: saline 110 % of control | dose: 12.0 mg/kg/injection, schedule: Q01DX009 (ip), vehicle: saline 117 % of control | dose: 13.0 mg/kg/injection, schedule: Q01DX001 (ip), vehicle: saline 113 % of control | dose: 13.33 mg/kg/injection, schedule: Q01DX009 (ip), vehicle: saline 119 % of control | dose: 13.33 mg/kg/injection, schedule: Q04DX003 (ip), vehicle: saline 100 % of control | dose: 16.0 mg/kg/injection, schedule: Q01DX001 (ip), vehicle: saline 118 % of control and 122 % of control | dose: 16.0 mg/kg/injection, schedule: Q01DX005 (ip), vehicle: water 109 % of control | dose: 16.0 mg/kg/injection, schedule: Q01DX009 (ip), vehicle: water 86 % of control | dose: 16.0 mg/kg/injection, schedule: Q03HX008 (ip), vehicle: saline 90 % of control and 122 % of control | dose: 16.0 mg/kg/injection, schedule: Q03HX016 (ip), vehicle: saline 104 % of control | dose: 18.0 mg/kg/injection, schedule: Q01DX009 (ip), vehicle: saline 95 % of control and 98 % of control | dose: 20.0 mg/kg/injection, schedule: Q01DX001 (ip), vehicle: saline 113 % of control | dose: 22.22 mg/kg/injection, schedule: Q04DX003 (ip), vehicle: saline 106 % of control | dose: 30.0 mg/kg/injection, schedule: Q01DX001 (ip), vehicle: saline 109 % of control | dose: 30.0 mg/kg/injection, schedule: Q01DX009 (ip), vehicle: saline 86 % of control | dose: 32.0 mg/kg/injection, schedule: Q01DX001 (ip), vehicle: saline 122 % of control | dose: 32.0 mg/kg/injection, schedule: Q04DX003 (ip), vehicle: other 101 % of control | dose: 32.0 mg/kg/injection, schedule: Q04DX003 (ip), vehicle: saline 100 % of control | dose: 32.0 mg/kg/injection, schedule: Q08DX002 (ip), vehicle: saline 109 % of control | dose: 37.0 mg/kg/injection, schedule: Q04DX003 (ip), vehicle: saline 110 % of control | dose: 44.0 mg/kg/injection, schedule: Q01DX001 (ip), vehicle: saline 113 % of control and 118 % of control | dose: 61.7 mg/kg/injection, schedule: Q04DX003 (ip), vehicle: saline 105 % of control | dose: 64.0 mg/kg/injection, schedule: Q01DX001 (ip), vehicle: saline 104 % of control and 118 % of control | dose: 64.0 mg/kg/injection, schedule: Q01DX009 (ip), vehicle: saline 95 % of control | dose: 64.0 mg/kg/injection, schedule: Q04DX003 (ip), vehicle: saline 109 % of control | dose: 64.0 mg/kg/injection, schedule: Q08DX002 (ip), vehicle: saline 122 % of control | dose: 67.0 mg/kg/injection, schedule: Q01DX001 (ip), vehicle: saline 113 % of control | dose: 100.0 mg/kg/injection, schedule: Q01DX001 (ip), vehicle: saline 108 % of control | dose: 128.0 mg/kg/injection, schedule: Q01DX001 (ip), vehicle: saline 118 % of control | dose: 128.0 mg/kg/injection, schedule: Q04DX003 (ip), vehicle: saline 100 % of control | dose: 128.0 mg/kg/injection, schedule: Q08DX002 (ip), vehicle: saline 104 % of control and 118 % of control
